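Method: 48-hour compound exposure of cells in 96-well plates, five concentrations, linear interpolation of endpoints. The concentration for 50% growth inhibition is given as GI50.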 Calls of active or inactive are those of the source. Cut-off read from the data, not from the text of the source: active = GI50 up to about 1.1 µM and inactive = higher.
Assays:
Experiment in all cases: NCI-60 cell line screen, 48 h
OVCAR-4 = system: OVCAR-4
A498 = system: A498
CAKI-1 = system: CAKI-1
PC-3 = system: PC-3
NCI-H23 = system: NCI-H23
NCI-H522 = system: NCI-H522
HCT-116 = system: HCT-116
SK-MEL-2 = system: SK-MEL-2
SNB-75 = system: SNB-75
MDA-N = system: MDA-N
HOP-92 = system: HOP-92
NCI/ADR-RES = system: NCI/ADR-RES
HCC 2998 = system: HCC 2998
EKVX = system: EKVX
TK-10 = system: TK-10
LOX IMVI = system: LOX IMVI
MCF7 = system: MCF7
UACC-257 = system: UACC-257
SN12C = system: SN12C

Structure (SMILES)	GI50 (OVCAR-4)	GI50 (A498)	GI50 (CAKI-1)	GI50 (PC-3)	GI50 (NCI-H23)	GI50 (NCI-H522)	GI50 (HCT-116)	GI50 (SK-MEL-2)	GI50 (SNB-75)	GI50 (MDA-N)	GI50 (HOP-92)	GI50 (NCI/ADR-RES)	GI50 (HCC 2998)	GI50 (EKVX)	GI50 (TK-10)	GI50 (LOX IMVI)	GI50 (MCF7)	GI50 (UACC-257)	GI50 (SN12C)
O=[N+]([O-])/C(C(Cl)=C(Cl)Cl)=C(/Sc1ccccc1)N1CCCCC1	> 66.7 µM (inactive)	> 61.9 µM (inactive)	> 22.9 µM (inactive)	> 75.9 µM (inactive)	> 100 µM (inactive)	13.6 µM (inactive)	37.8 µM (inactive)	2.44 µM (inactive)	> 100 µM (inactive)	> 61.5 µM (inactive)	> 100 µM (inactive)	> 100 µM (inactive)	> 100 µM (inactive)	> 91.4 µM (inactive)	> 100 µM (inactive)	8.45 µM (inactive)	> 100 µM (inactive)	54.2 µM (inactive)	> 100 µM (inactive)
CC1=CC[C@@]2(C)[C@@H]([C@@H]1C)[C@H]1CC[C@@H]3[C@@]4(C)CC[C@H](O)C(C)(C)[C@@H]4CC[C@@]3(C)[C@]1(C)C[C@@H]2O	24.3 µM (inactive)	> 20.7 µM (inactive)	37.2 µM (inactive)	18.6 µM (inactive)	25.6 µM (inactive)	2.52 µM (inactive)	22.2 µM (inactive)	24.8 µM (inactive)	30.3 µM (inactive)	32.4 µM (inactive)	25.6 µM (inactive)	21.8 µM (inactive)	17.7 µM (inactive)	5.61 µM (inactive)	> 39.5 µM (inactive)	5.53 µM (inactive)	35.2 µM (inactive)	17.4 µM (inactive)	6.61 µM (inactive)
S=C1Cc2c(-c3ccccc3)cc(-c3ccc(Cl)cc3)nc2-c2ccccc2N1	0.42 µM (active)	1.62 µM (inactive)	1.36 µM (inactive)	6.14 µM (inactive)	2.88 µM (inactive)	2.06 µM (inactive)	1.85 µM (inactive)	6.85 µM (inactive)	0.951 µM (active)	4.27 µM (inactive)	1.72 µM (inactive)	2.38 µM (inactive)	5.07 µM (inactive)	2.52 µM (inactive)	2.12 µM (inactive)	3.41 µM (inactive)	15.1 µM (inactive)	4.7 µM (inactive)	1.63 µM (inactive)
CCCCC/C(=N\c1[nH]nnc1C(N)=O)OCC	> 100 µM (inactive)	> 100 µM (inactive)	> 100 µM (inactive)	> 100 µM (inactive)	> 100 µM (inactive)	> 100 µM (inactive)	> 100 µM (inactive)	> 100 µM (inactive)	> 100 µM (inactive)	> 100 µM (inactive)	26.2 µM (inactive)	> 100 µM (inactive)	> 100 µM (inactive)	> 100 µM (inactive)	> 100 µM (inactive)	> 100 µM (inactive)	> 100 µM (inactive)	> 100 µM (inactive)	> 100 µM (inactive)
Cc1cc2nc(N3C(=O)/C(=C/c4ccc(Oc5ccccc5)cc4)N=C3c3ccccc3)sc2cc1C	45.7 µM (inactive)	54.7 µM (inactive)	50.5 µM (inactive)	40 µM (inactive)	42.7 µM (inactive)	24.6 µM (inactive)	40.6 µM (inactive)	23.3 µM (inactive)	62.2 µM (inactive)	25.2 µM (inactive)	95.5 µM (inactive)	26.2 µM (inactive)	40 µM (inactive)	42.6 µM (inactive)	59.4 µM (inactive)	44.6 µM (inactive)	24.2 µM (inactive)	29.2 µM (inactive)	> 100 µM (inactive)
CCCC[C@@H](C)/C=C1\CN2CCC[C@H]2[C@@](C)(OCc2ccccc2)[C@@H]1O	> 50 µM (inactive)	> 47.8 µM (inactive)	> 50 µM (inactive)	> 50 µM (inactive)	> 50 µM (inactive)	> 27.9 µM (inactive)	> 50 µM (inactive)	> 50 µM (inactive)	> 32.3 µM (inactive)	> 44 µM (inactive)	> 42 µM (inactive)	> 50 µM (inactive)	> 50 µM (inactive)	> 31.1 µM (inactive)	> 38.5 µM (inactive)	> 50 µM (inactive)	> 50 µM (inactive)	> 17.6 µM (inactive)	> 50 µM (inactive)
Cn1c([C@H](C#N)C(=O)c2cc(O)ccc2[N+](=O)[O-])nc2ccccc21	> 100 µM (inactive)	> 100 µM (inactive)	> 100 µM (inactive)	> 100 µM (inactive)	> 100 µM (inactive)	> 100 µM (inactive)	> 100 µM (inactive)	> 100 µM (inactive)	> 100 µM (inactive)	> 100 µM (inactive)	> 100 µM (inactive)	> 100 µM (inactive)	> 100 µM (inactive)	> 100 µM (inactive)	> 100 µM (inactive)	> 100 µM (inactive)	> 100 µM (inactive)	> 100 µM (inactive)	> 100 µM (inactive)
COC(=O)[C@@H]1C[C@@H](O)CN1C(=O)c1ccc([N+](=O)[O-])cc1[N+](=O)[O-]	> 100 µM (inactive)	> 100 µM (inactive)	> 100 µM (inactive)	> 100 µM (inactive)	> 100 µM (inactive)	> 100 µM (inactive)	> 100 µM (inactive)	> 100 µM (inactive)	> 100 µM (inactive)	> 100 µM (inactive)	> 100 µM (inactive)	> 100 µM (inactive)	> 100 µM (inactive)	> 100 µM (inactive)	> 100 µM (inactive)	> 100 µM (inactive)	> 100 µM (inactive)	> 100 µM (inactive)	> 100 µM (inactive)
O=c1ccn([C@@H]2C[C@@H]2CO)c(=O)[nH]1	> 100 µM (inactive)	> 100 µM (inactive)	> 100 µM (inactive)	> 100 µM (inactive)	> 100 µM (inactive)	> 100 µM (inactive)	> 100 µM (inactive)	> 100 µM (inactive)	> 100 µM (inactive)	> 100 µM (inactive)	> 100 µM (inactive)	> 100 µM (inactive)	> 100 µM (inactive)	> 100 µM (inactive)	> 100 µM (inactive)	> 100 µM (inactive)	> 100 µM (inactive)	> 100 µM (inactive)	> 100 µM (inactive)
COC(=O)[C@@H]1COC(C(C)(C)C)N1C(=O)C(c1ccccc1)c1ccccc1 (stereo not given in full)	43.2 µM (inactive)	> 100 µM (inactive)	> 100 µM (inactive)	24.8 µM (inactive)	81.7 µM (inactive)	59 µM (inactive)	41.3 µM (inactive)	90.2 µM (inactive)	32.4 µM (inactive)	26 µM (inactive)	37 µM (inactive)	34 µM (inactive)	48.3 µM (inactive)	55.7 µM (inactive)	50.4 µM (inactive)	22.6 µM (inactive)	64.3 µM (inactive)	33.6 µM (inactive)	32.1 µM (inactive)
